Experiments:
Type in all cases: cell-based, human
nm23H1-B gene [1] = assay: nm23H1-B mRNA expression in colon cancer cells treated with different anticancer agents (RT-PCR and real time PCR); details: HT29 cell line, 24 hrs
Experimental: To study the effect of other anticancer agents on expression of nm23H1-B gene, we took representative of different classes of anticancer agents like alkylating agents (cisplatin), topoisomerase I and II inhibitors (CPT-11), RNA/DNA antimetabolites (5-FU) and antimitotic agents (paclitaxel).
Cells were treated with different anticancer agents for 24 hrs and RNA was isolated.

nm23H1-A [2] = assay: nm23H1-A mRNA expression in colon cancer cells treated with different anticancer agents (RT-PCR and real time PCR); details: HT29 cell line, 24 hrs
[3] = test system: nm23H1 protein (19.6 kDa form coded by nm23H1-B gene); assay: Two-dimensional PAGE / MALDI of untreated and 5FU treated Colo 205 cell lysate, differentially expressed proteins; details: colo 205 cells, 100 μM, 24 hrs, 2D PAGE spot intensity
Experimental: Two-dimensional gel electrophoresis was carried out to identify differentially expressed proteins on treatment with anticancer agents specifically, colon/colorectal cancer cell line (NCCS, Pune, India) was treated with 5-FU (Fivoflu, Dabur Pharma Ltd, India). Untreated cells (cells, not treated with 5FU) were taken as control.
100 μM of 5-FU was added to colo 205 cells seeded at 80% confluence and were harvested after 24 hrs of treatment. Cells were lysed in lysis buffer (Urea 0.54 g/ml, CHAPS 40 mg/ml and DTT 20 mg/ml) and the clear supernatant of treated and untreated (not treated with 5-FU) cell lysate were subjected to isoelectric focusing (Bio-Rad, Protean IEF Cell) on separate 17 cm IPG strips of 4-7 pH range.
Second dimension electrophoresis was subsequently carried out on a 12% SDS-PAGE (Protean II XL electrophoresis system, Bio-Rad). The gel was silver stained for visualization of the protein spots and a digitized image of the 2D gel was generated, using GS 800 Densitometer (Bio-Rad). […]
The protein spots showing more than 2-fold change in intensity in 5-FU treated and untreated samples were further analyzed. […] The dried samples were reconstituted in 10 μl of 0.1% (v/v of 50% acetonitrile) trifluoroacetic acid and peptides were detected on a Matrix-Assisted Laser Desorption/Ionisation-Time of Flight Mass Spectrometry (MALDI-TOF MS) (Voyager-DE STR). […]

nm23H1-B gene [4] = assay: RT-PCR / real time PCR of nm23H1-B mRNA in 5-FU treated colon cancer cell lines (Colo 205, HT29)
Experimental: (§1) The over expression of nm23H1-B was checked at RNA level by RT-PCR. Colo 205 cells were seeded in 6 well plates at 80% confluence and treated with 100 μM of 5FU for 24 hrs. Subsequently, 1 ml of Trizol reagent (Invitrogen) was added to the cells after a phosphate buffer saline washing for extraction of RNA. The total RNA was extracted using chloroform-isopropyl alcohol method. Finally, the pellet was washed with 70% ethanol and dried on a speed-vac. Control RNA from untreated cells was also extracted in a similar fashion (cells, not treated with 5FU.
(§2) RT-PCR was carried out using one step RT-PCR Kit (Qiagen) according to manufacturer's instructions. 1 μg of RNA was taken and mixed with specific primers of nm23H1A & nm23H1B respectively (Table 1, SEQ ID: 3,4,5). β2-micro globulin (primer sequence, Table 1, SEQ ID: 6,7) was used as a control. The PCR amplified samples were then analyzed on a 1.5% agarose gel.

nm23H1-A [5] = assay: RT-PCR / real time PCR of nm23H1-A mRNA in 5-FU treated colon cancer cell lines; details: Colo 205 cells, 100 μM, 24 hrs
Experimental: as §1, §2

nm23H1-B protein = assay: Western blot of nuclear and cytosolic fractions of 5FU treated Colo 205 cells; details: 100 μM, 24 hours
Experimental: Intracellular localization of both nm23H1-A & nm23H1-B gene was evaluated by Western Blot analysis. Colo 205 cells were treated with 100 μM 5FU for 24 hours and cells were removed from their dishes by gentle scraping. Cells were washed with cold PBS and then resuspended in cold nuclei extraction buffer (320 mM sucrose, 5 mM Mgcl2, 10 mM HEPES, 1% Triton X-100 at pH 7.4) at a ratio of 1 ml per million cells. Nuclear fraction was then pelleted by centrifugation at 2000×g and washed twice with nuclei washing buffer (same as nuclei extraction buffer without Triton X-100). Supernatant was collected separately as a cytosolic fraction. Protein was estimated in both nuclear and cytosolic fraction and equal amount of protein was loaded on a 15% SDS PAGE followed by electrobloting on to a polyvinylidene difluoride membrane. Transferred proteins were incubated with blocking buffer containing 3% bovine serum albumin in phosphate-buffered saline. Polyclonal antibody specific for nm23 protein (Santa Cruz) and peroxidase-labeled goat anti-rabbit IgG (Sigma) were used to probe the target gene.

SMILES | mRNA levels of nm23H1-B (nm23H1-B gene [1]) | mRNA levels of nm23H1-A (nm23H1-A [2]) | up regulation of nm23H1 protein in treated cells as compared to untreated [3] | change in nm23H1-B gene expression (RNA level) (nm23H1-B gene [4]; Colo 205 cells, 100 μM, 24 hrs, RT-PCR) | overexpression of nm23H1-B gene (nm23H1-B gene [4]; colon/colorectal cancer cells) | change in nm23H1-A expression level (RNA level) (nm23H1-A [5]) | nm23H1-B protein level (nm23H1-B protein)
CC(=O)O[C@H]1C(=O)[C@@]2(C)[C@H]([C@H](OC(=O)c3ccccc3)[C@]3(O)C[C@H](OC(=O)[C@H](O)[C@@H](NC(=O)c4ccccc4)c4ccccc4)C(C)=C1C3(C)C)[C@]1(OC(C)=O)CO[C@@H]1C[C@@H]2O [paclitaxel] | Increase | Increase | – | – | – | – | –
O=c1[nH]cc(F)c(=O)[nH]1 [5-FU] | Increase | Increase | more than 6 fold | up regulation | about nine | insignificant change | up-regulation
CCc1c2c(nc3ccc(OC(=O)N4CCC(N5CCCCC5)CC4)cc13)-c1cc3c(c(=O)n1C2)COC(=O)[C@]3(O)CC [CPT11, camptothecin-11] | Increase | Increase | – | – | – | – | –
N.N.[Cl][Pt][Cl] [cisplatin] | Increase | Increase | – | – | – | – | –

— patent publication US20100222416A1, “Diagnostic Marker and Therapeutic Target for Cancer” (priority 2005, published 2010)
